Source: patent US20220220135A1 (BAR-ILAN UNIVERSITY, priority 2019, published 2022)

Experiments:
NTPDase3 = biological target: T1, NTPDase3 (Homo sapiens, UniProt O75355); assay: Inhibition of ATPase activity of human NTPDase3; assay type: biochemical; details: analogue at 100 μM; ATP 100 μM as substrate
T1 sequence (O75355 1-529): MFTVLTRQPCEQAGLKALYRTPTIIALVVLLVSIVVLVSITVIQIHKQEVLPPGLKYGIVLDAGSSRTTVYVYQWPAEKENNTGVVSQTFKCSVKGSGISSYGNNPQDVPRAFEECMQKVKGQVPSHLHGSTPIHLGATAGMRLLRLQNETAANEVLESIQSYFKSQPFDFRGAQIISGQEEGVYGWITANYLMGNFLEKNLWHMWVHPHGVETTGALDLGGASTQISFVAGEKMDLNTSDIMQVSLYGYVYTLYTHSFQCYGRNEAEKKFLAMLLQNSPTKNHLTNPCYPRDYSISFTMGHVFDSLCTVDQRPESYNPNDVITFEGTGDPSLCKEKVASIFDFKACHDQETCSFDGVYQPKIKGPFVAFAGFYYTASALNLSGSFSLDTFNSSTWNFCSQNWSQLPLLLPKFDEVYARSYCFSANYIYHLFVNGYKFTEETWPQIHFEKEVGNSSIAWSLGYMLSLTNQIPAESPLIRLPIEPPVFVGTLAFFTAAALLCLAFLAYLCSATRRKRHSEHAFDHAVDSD
Protocol: (§1) FIG. 2: Inhibition of NTPDases and NPPs by analogues 9-12 using as substrates ATP (100 μM) for NTPDase1,2,3,8 and pNP-TMP (100 μM) for NPP1,3 (Panel A); and ATP (100 μM) was used as the substrate for NPP1 (Panel B);
(§2) At least 2 independent experiments were performed. In panel A, the activity with 100 μM ATP was set as 100%, which was 287±31, 395±67, 278±22, 119±26 nmol of Pi·min−1·mg of protein−1 for human NTPDase1, -2, -3 and -8, respectively, and the activity with 100 μM pNP-TMP was set as 100% which was 67±5, 21±1 nmol of p-nitrophenol·min−1·mg of protein−1 for human NPP1 and NPP3, respectively. In panel B, the activity with 100 μM ATP was set as 100% which was 34±7 nmol of PPi·min−1·mg of protein−1 for NPP1.

NTPDase8 = biological target: T2, NTPDase8 (Homo sapiens, UniProt Q5MY95); assay: Inhibition of ATPase activity of human NTPDase8; assay type: biochemical; details: analogue at 100 μM; ATP 100 μM as substrate
T2 sequence (Q5MY95 1-495): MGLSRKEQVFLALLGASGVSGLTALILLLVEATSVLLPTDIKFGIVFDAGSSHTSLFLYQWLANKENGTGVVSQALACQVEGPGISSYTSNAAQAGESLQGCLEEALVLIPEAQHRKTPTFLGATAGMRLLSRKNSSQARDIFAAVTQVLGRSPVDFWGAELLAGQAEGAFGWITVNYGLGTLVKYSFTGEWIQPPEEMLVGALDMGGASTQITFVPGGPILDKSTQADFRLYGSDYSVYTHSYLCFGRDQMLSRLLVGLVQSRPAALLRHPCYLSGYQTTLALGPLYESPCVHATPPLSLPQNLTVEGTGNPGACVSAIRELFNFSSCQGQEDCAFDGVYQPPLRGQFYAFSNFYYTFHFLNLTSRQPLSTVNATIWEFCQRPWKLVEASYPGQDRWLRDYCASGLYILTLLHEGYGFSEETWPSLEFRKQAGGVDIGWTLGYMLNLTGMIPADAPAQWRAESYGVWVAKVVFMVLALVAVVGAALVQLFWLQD
Protocol: as §1, §2

NPP1 = biological target: T3, NPP1 (Homo sapiens, UniProt P22413); assay: Stability to hydrolysis by human NPP1; assay type: in vitro ADME; details: analogue 100 μM; activity with 100 μM ATP = 100%
T3 sequence (P22413 1-925): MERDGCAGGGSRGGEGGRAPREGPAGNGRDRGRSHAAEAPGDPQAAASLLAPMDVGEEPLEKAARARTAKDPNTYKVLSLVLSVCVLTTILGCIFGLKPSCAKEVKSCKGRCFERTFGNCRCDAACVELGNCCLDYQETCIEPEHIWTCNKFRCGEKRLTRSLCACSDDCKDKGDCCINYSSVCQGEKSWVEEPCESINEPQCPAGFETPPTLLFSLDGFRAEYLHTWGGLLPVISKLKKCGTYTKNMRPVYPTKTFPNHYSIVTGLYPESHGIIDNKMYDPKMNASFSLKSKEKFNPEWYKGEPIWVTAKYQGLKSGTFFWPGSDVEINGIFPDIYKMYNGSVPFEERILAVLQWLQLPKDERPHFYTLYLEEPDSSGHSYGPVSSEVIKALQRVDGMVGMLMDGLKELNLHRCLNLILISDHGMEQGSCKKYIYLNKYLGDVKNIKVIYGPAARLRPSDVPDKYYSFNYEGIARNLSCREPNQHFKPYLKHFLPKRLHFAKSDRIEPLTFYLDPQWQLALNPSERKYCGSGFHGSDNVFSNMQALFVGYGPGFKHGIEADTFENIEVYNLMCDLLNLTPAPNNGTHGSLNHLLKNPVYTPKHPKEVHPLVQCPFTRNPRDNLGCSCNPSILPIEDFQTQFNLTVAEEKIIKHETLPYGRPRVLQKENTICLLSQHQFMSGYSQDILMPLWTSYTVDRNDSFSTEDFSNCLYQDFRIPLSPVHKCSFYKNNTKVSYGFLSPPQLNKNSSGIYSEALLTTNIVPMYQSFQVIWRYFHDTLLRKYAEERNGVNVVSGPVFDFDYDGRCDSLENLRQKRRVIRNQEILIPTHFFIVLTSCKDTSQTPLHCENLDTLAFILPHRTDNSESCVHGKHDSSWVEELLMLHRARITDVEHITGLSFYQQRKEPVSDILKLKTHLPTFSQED
Protocol: Uridine 5′-Pα,α-phosphorodithioate analogues, 9-12, were tested for their stability to degradation by NPP1 and NTPDases. These enzymes are involved in the metabolism of extracellular nucleotides. Analogues 9-12 were not hydrolyzed by hNPP1 (Table 2). […] Analogue 10 was hydrolyzed by hNTPDase1, -2 and -3 at 30-39% the rate of ATP and was slightly hydrolyzed by human NTPDase8 at 16% the rate of ATP.
Analogues 9-12 were incubated in the presence of the indicated ectonucleotidase at a concentration of 100 μM. The activity with 100 μM ATP was set as 100%, which was 329±108, 302±34, 263±51, 195±76 nmol of Pi·min−1·mg of protein−1 for NTPDase1, -2, -3 and -8, respectively, and 34±7 nmol for NPP1. Data presented are the mean±SEM of results from two experiments.

P2Y6R = P2Y6R (Homo sapiens, UniProt Q15077); assay: P2Y6R agonist activity, inositol-1-phosphate (IP1) accumulation; assay type: cell-based; parameters: expressed in transfected cells; host or cells: AD293 cells; details: vs. UDP
Sequence of P2Y6R (Q15077 whole entry): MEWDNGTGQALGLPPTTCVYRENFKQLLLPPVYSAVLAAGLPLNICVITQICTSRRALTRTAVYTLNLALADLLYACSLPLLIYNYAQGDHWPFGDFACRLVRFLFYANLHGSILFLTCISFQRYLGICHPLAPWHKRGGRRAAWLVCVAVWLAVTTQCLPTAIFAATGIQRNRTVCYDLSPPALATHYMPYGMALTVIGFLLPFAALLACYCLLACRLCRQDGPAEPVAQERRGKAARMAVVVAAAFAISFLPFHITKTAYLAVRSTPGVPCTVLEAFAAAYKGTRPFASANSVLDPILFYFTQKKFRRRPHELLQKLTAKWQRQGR
Source text: FIG. 3: P2Y6R agonist activity of analogues 9-12 vs. UDP determined by measuring the production of inositol-1-phosphate (IP1);

SMILES | inhibition of human NTPDase3 (NTPDase3) | inhibition of human NTPDase8 (NTPDase8) | Relative activity (%) ± SEM of ATP hydrolysis, NPP1 (NPP1) | P2Y6-R agonist activity (IP1 accumulation) (P2Y6R) | inhibition at 100 µM (NTPDase3)
O=c1ccn([C@@H]2O[C@H](COP(=S)(S)OP(=O)(O)OP(=O)(O)O)[C@@H](O)[C@H]2O)c(=O)[nH]1 (stereo partly drawn) [Analogue 10] | no inhibition | no inhibition | 0% | limited agonist activities | –
O=c1ccn([C@@H]2O[C@H](COP(=S)(S)OP(=O)(O)CP(=O)(O)O)[C@@H](O)[C@H]2O)c(=O)[nH]1 (stereo partly drawn) [Analogue 11] | negligible effects | negligible effects | 0% | devoid of any P2Y6—R activity | –
O=c1ccn([C@@H]2O[C@H](COP(=S)(S)OP(=O)(O)OP(=O)(O)OP(=S)(S)OC[C@H]3O[C@@H](n4ccc(=O)[nH]c4=O)[C@H](O)[C@@H]3O)[C@@H](O)[C@H]2O)c(=O)[nH]1 (stereo partly drawn) [Analogue 12] | – | selective to NPP1 | 0% | limited agonist activities | 24%
